Laboratory results reported in patent publication US10202370B2, “Benzimidazole derivatives as selective proteine kinase inhibitors” (AB SCIENCE, priority 2013, dated 2019).

Biological target: c-kit WT (Homo sapiens (Human), UniProt P10721)
Assay: Proliferation assay (CellTiter-Blue) on BaF3 Kit WT cell line
Assay type: cell-based
Details: BaF3 Kit WT cell line (murine Ba/F3 expressing Human Kit WT, with murine SCF), 48 hours
Experimental: Procedures of C-Kit WT Inhibition Assays:
Colorimetric cell proliferation and viability assay (reagent CellTiter-Blue purchased from Promega cat N°G8081) was performed on BaF3 Kit WT cell line.
A total of 2.10^4 cells/50 μl were seeded per well of a 96-wells plate. Treatment was initiated by addition of a 2× drug solution of ½ serial dilutions ranging from 0 to 10 μM. After incubating for 48 hours at 37° C., 10 μl of a ½ dilution of CellTiter-Blue reagent was added to each well and the plates were returned to the incubator for an additional 4 hours. The fluorescence intensity from the CellTiter-Blue reagent is proportional to the number of viable cells and data were recorded (544Ex/590Em) using a POLARstar OMEGA microplate reader (BMG LabteckSarl). A background control without cells was used as a blank. The positive control of the assay corresponds to the cell proliferation obtained in the absence of drug treatment (100% proliferation). Each sample was done in triplicate. The results were expressed as a percentage of the proliferation obtained in absence of treatment. All drugs were prepared as 20 mM stock solutions in DMSO and conserved at −80° C. Drug dilutions were made fresh in medium before each experiment. A DMSO control was included in each experiment.
The cell line expressing Human Kit WT was derived from the murine IL3-dependent Ba/F3 proB lymphoid cells. Ba/F3 Kit WT cells were maintained in RPMI medium containing 10% FCS and supplemented with 250 ng/ml of recombinant murine SCF.

Sequence of c-kit WT (P10721 26-976): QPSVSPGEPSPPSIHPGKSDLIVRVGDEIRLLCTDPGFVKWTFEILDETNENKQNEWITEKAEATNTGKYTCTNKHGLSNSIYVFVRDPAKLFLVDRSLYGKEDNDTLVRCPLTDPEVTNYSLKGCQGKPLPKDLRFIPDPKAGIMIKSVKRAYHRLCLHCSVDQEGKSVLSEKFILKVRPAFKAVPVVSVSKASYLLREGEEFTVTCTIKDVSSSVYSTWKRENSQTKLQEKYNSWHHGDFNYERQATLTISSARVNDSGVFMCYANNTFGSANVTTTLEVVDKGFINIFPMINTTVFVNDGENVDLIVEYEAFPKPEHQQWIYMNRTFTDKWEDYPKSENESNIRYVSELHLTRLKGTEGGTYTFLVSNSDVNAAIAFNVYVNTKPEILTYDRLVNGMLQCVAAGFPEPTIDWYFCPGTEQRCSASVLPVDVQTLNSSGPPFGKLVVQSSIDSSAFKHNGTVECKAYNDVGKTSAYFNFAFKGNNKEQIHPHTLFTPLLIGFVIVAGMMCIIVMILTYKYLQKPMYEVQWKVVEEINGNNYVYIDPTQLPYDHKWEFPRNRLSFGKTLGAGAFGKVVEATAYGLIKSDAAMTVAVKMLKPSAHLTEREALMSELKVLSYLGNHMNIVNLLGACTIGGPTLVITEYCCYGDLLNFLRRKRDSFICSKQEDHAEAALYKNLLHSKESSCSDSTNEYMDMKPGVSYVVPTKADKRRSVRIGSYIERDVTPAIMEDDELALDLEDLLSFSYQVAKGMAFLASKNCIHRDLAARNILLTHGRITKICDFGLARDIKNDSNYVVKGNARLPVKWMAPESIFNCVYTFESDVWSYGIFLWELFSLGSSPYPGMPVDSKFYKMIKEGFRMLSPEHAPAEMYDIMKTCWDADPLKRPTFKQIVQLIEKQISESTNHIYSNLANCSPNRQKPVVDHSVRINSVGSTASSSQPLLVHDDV

SMILES	IC50 [µM]
Cc1cc2c(cc1Nc1nc(-c3ccncc3)cs1)nc(-c1cccc(C(C)C)c1)n2C [Compound 151, [2-(3-Isopropyl-phenyl)-1,6-dimethyl-1H-benzoimidazol-5-yl]-(4-pyridin-4-yl-thiazol-2-yl)-amine]	≤ 1
Cc1cc2c(cc1Nc1nc(-c3cccnc3)cs1)nc(-c1cccc(C(F)F)c1)n2C [Compound 084, [2-(3-Difluoromethyl-phenyl)-1,6-dimethyl-1H-benzoimidazol-5-yl]-(4-pyridin-3-yl-thiazol-2-yl)-amine]	≤ 1
Cc1cc2[nH]c(-c3cccc(C(F)(F)F)c3)nc2cc1Nc1nc(-c2ccnc(Cl)c2)cs1 [Compound 106, [4-(2-Chloro-pyridin-4-yl)-thiazol-2-yl]-[6-methyl-2-(3-trifluoromethyl-phenyl)-1H-benzoimidazol-5-yl]-amine]	≤ 1
Cc1cc2nc(-c3ccc(C(F)(F)F)cc3)[nH]c2cc1Nc1nc(-c2cncnc2)cs1 [Compound 067, [6-Methyl-2-(4-trifluoromethyl-phenyl)-1H-benzoimidazol-5-yl]-(4-pyrimidin-5-yl-thiazol-2-yl)-amine]	1 to 10
Cc1cc2nc(-c3cccc(OC(F)(F)F)c3)[nH]c2cc1Nc1nccc(-c2cccnc2)n1 [Compound 037, [6-Methyl-2-(3-trifluoromethoxy-phenyl)-3H-benzoimidazol-5-yl]-(4-pyridin-3-yl-pyrimidin-2-yl)-amine]	1 to 10
FC(F)(F)c1cccc(-c2nc3cc(Nc4nc(-c5cccnc5)cs4)ccc3[nH]2)c1 [Compound 088, (4-Pyridin-3-yl-thiazol-2-yl)-[2-(3-trifluoromethyl-phenyl)-1H-benzoimidazol-5-yl]-amine]	1 to 10
Cc1cc2nc(-c3cc(CN4CCCCC4)cc(C(F)(F)F)c3)[nH]c2cc1Nc1nc(-c2cccnc2)cs1 [Compound 024, [6-Methyl-2-(3-piperidin-1-ylmethyl-5-trifluoromethyl-phenyl)-3H-benzoimidazol-5-yl]-(4-pyridin-3-yl-thiazol-2-yl)-amine]	≤ 1
Cc1cc2nc(-c3cncc(C(F)(F)F)c3)[nH]c2cc1Nc1nccc(-c2cccnc2)n1 [Compound 042, [6-Methyl-2-(5-trifluoromethyl-pyridin-3-yl)-3H-benzoimidazol-5-yl]-(4-pyridin-3-yl-pyrimidin-2-yl)-amine]	1 to 10
Cc1cccc(-c2nc3cc(Nc4nc(-c5ccncc5)cs4)c(C)cc3n2C(C)C)c1 [Compound 102, (1-Isopropyl-6-methyl-2-m-tolyl-1H-benzoimidazol-5-yl)-(4-pyridin-4-yl-thiazol-2-yl)-amine]	≤ 1
Cc1cc2nc(Cc3cccc(C(F)(F)F)c3)[nH]c2cc1Nc1ncc(-c2ccncc2)o1 [Compound 051, [6-Methyl-2-(3-trifluoromethyl-benzyl)-3H-benzoimidazol-5-yl]-(5-pyridin-4-yl-oxazol-2-yl)-amine]	1 to 10
Cc1cccc(-c2nc3cc(C)c(Nc4nc(-c5cccnc5)cs4)cc3n2C)c1 [Compound 118, (3,6-Dimethyl-2-m-tolyl-3H-benzoimidazol-5-yl)-(4-pyridin-3-yl-thiazol-2-yl)-amine]	1 to 10
Cc1cc2[nH]c(-c3cccc(S(C)(=O)=O)c3)nc2cc1Nc1nc(-c2cccnc2)cs1 [Compound 121, [2-(3-Methanesulfonyl-phenyl)-6-methyl-1H-benzoimidazol-5-yl]-(4-pyridin-3-yl-thiazol-2-yl)-amine]	≤ 1
Cc1cc2c(cc1Nc1nc(-c3ccncc3)cs1)nc(-c1cc(F)cc(C(F)(F)F)c1)n2C [Compound 147, [2-(3-Fluoro-5-trifluoromethyl-phenyl)-1,6-dimethyl-1H-benzoimidazol-5-yl]-(4-pyridin-4-yl-thiazol-2-yl)-amine]	≤ 1
Cc1cc2[nH]c(-c3cncn3C)nc2cc1Nc1nc(-c2ccncc2)cs1 [Compound 080, [6-Methyl-2-(3-methyl-3H-imidazol-4-yl)-1H-benzoimidazol-5-yl]-(4-pyridin-4-yl-thiazol-2-yl)-amine]	1 to 10
Cc1cccc(-c2nc3cc(C)c(Nc4nc(-c5cccnc5)cs4)cc3[nH]2)c1 [Compound 011, (6-Methyl-2-m-tolyl-3H-benzoimidazol-5-yl)-(4-pyridin-3-yl-thiazol-2-yl)-amine]	≤ 1
Cc1cc2nc(Cc3ccccc3)[nH]c2cc1Nc1nc(-c2cccnc2)cs1 [Compound 022, (2-Benzyl-6-methyl-3H-benzoimidazol-5-yl)-(4-pyridin-3-yl-thiazol-2-yl)-amine]	1 to 10

SMILES	IC50 [µM]
Cc1cc2c(cc1Nc1nc(-c3ccncc3)cs1)nc(-c1cccc(N(C)C)c1)n2C [Compound 133]	≤ 1
Cc1cc2[nH]c(-c3cccc(C(F)F)c3)nc2cc1Nc1nc(-c2ccnc(Cl)c2)cs1 [Compound 108, [4-(2-Chloro-pyridin-4-yl)-thiazol-2-yl]-[2-(3-difluoromethyl-phenyl)-6-methyl-1H-benzoimidazol-5-yl]-amine]	≤ 1
Cn1c(-c2cccc(C(F)F)c2)nc2cc(Nc3nc(-c4cccnc4)cs3)ccc21 [Compound 090, [2-(3-Difluoromethyl-phenyl)-1-methyl-1H-benzoimidazol-5-yl]-(4-pyridin-3-yl-thiazol-2-yl)-amine]	1 to 10
Cc1cc2nc(-c3ccc(CN4CCN(C)CC4)cc3)[nH]c2cc1Nc1nc(-c2cncnc2)cs1 [Compound 065, {6-Methyl-2-[4-(4-methyl-piperazin-1-ylmethyl)-phenyl]-3H-benzoimidazol-5-yl}-(4-pyrimidin-5-yl-thiazol-2-yl)-amine]	1 to 10
Cc1cc2nc(-c3ccc(-n4cccn4)cc3)[nH]c2cc1Nc1nc(-c2cccnc2)cs1 [Compound 057, [6-Methyl-2-(4-pyrazol-1-yl-phenyl)-3H-benzoimidazol-5-yl]-(4-pyridin-3-yl-thiazol-2-yl)-amine]	≤ 1
Cc1cc2nc(-c3cncn3C)[nH]c2cc1Nc1nc(-c2cccnc2)cs1 [Compound 077, [6-Methyl-2-(3-methyl-3H-imidazol-4-yl)-3H-benzoimidazol-5-yl]-(4-pyridin-3-yl-thiazol-2-yl)-amine]	1 to 10
Cc1cc2c(cc1Nc1nc(-c3ccc(C#N)cc3)cs1)nc(-c1cccc(C(F)F)c1)n2C [Compound 111, 4-{2-[2-(3-Difluoromethyl-phenyl)-1,6-dimethyl-1H-benzoimidazol-5-ylamino]-thiazol-4-yl}-benzonitrile]	≤ 1
Cc1cc2nc(CN3CCOCC3)[nH]c2cc1Nc1nc(-c2cccnc2)cs1 [Compound 064, (6-Methyl-2-morpholin-4-ylmethyl-3H-benzoimidazol-5-yl)-(4-pyridin-3-yl-thiazol-2-yl)-amine]	1 to 10
Cc1cc2nc(-c3cccc(OC(F)(F)F)c3)[nH]c2cc1Nc1nc(-c2cncnc2)cs1 [Compound 063, [6-Methyl-2-(3-trifluoromethoxy-phenyl)-3H-benzoimidazol-5-yl]-(4-pyrimidin-5-yl-thiazol-2-yl)-amine]	1 to 10
Cc1cc2c(cc1Nc1nc(-c3ccncc3)cs1)nc(-c1cccc(OC(F)(F)F)c1)n2C [Compound 083, [1,6-Dimethyl-2-(3-trifluoromethoxy-phenyl)-1H-benzoimidazol-5-yl]-(4-pyridin-4-yl-thiazol-2-yl)-amine]	≤ 1
Cc1cc2c(cc1Nc1nc(-c3ccc(C#N)cc3)cs1)nc(-c1cccc(C(C)(C)C)c1)n2C [Compound 144, 4-{2-[2-(3-tert-Butyl-phenyl)-1,6-dimethyl-1H-benzoimidazol-5-ylamino]-thiazol-4-yl}-benzonitrile]	≤ 1
Cc1cc2nc(-c3cccc(OC(F)(F)F)c3)[nH]c2cc1Nc1nc(-c2ccc(C(N)=O)cc2)cs1 [Compound 073, 4-{2-[6-Methyl-2-(3-trifluoromethoxy-phenyl)-3H-benzoimidazol-5-ylamino]-thiazol-4-yl}-benzamide]	≤ 1
Cc1cc2nc(-c3cccc(C(F)(F)F)c3)n(C)c2cc1Nc1nc(-c2cccnc2)cs1 [Compound 116, [3,6-Dimethyl-2-(3-trifluoromethyl-phenyl)-3H-benzoimidazol-5-yl]-(4-pyridin-3-yl-thiazol-2-yl)-amine]	1 to 10
Cc1cc2nc(-c3cc(CN4CCCC4)cc(C(F)(F)F)c3)[nH]c2cc1Nc1nc(-c2cccnc2)cs1 [Compound 023, [6-Methyl-2-(3-pyrrolidin-1-ylmethyl-5-trifluoromethyl-phenyl)-3H-benzoimidazol-5-yl]-(4-pyridin-3-yl-thiazol-2-yl)-amine]	1 to 10
Cc1cc2c(cc1Nc1nc(-c3cccnc3)cs1)nc(-c1ccc(CN3CCN(C)CC3)cc1)n2C [Compound 098, {1,6-Dimethyl-2-[4-(4-methyl-piperazin-1-ylmethyl)-phenyl]-1H-benzoimidazol-5-yl}-(4-pyridin-3-yl-thiazol-2-yl)-amine]	1 to 10
Cc1cc2nc(-c3cc(CN4CCN(C)CC4)cc(C(F)(F)F)c3)[nH]c2cc1Nc1nccc(-c2cccnc2)n1 [Compound 040, {6-Methyl-2-[3-(4-methyl-piperazin-1-ylmethyl)-5-trifluoromethyl-phenyl]-3H-benzoimidazol-5-yl}-(4-pyridin-3-yl-pyrimidin-2-yl)-amine]	1 to 10
